According to patent US6444812B1, “Intermediate compounds in the preparation of farnnesyl transferase inhibiting 1,8-annelated quinolinone derivatives substituted with N-or C linked imidazoles” (Janssen Pharmaceutica N.V., priority 1997, dated 2002):
pIC50: −log10 of the molar value.

Legend:
[1] = system: NIH 3T3 cells transformed by the T24 activated human H-ras gene; experiment: Ras-Transformed Cell Phenotype Reversion Assay; assay type: cell-based, mouse; conditions: cell counts after 72 hours proliferation
Description: “Ras-Transformed Cell Phenotype Reversion Assay”
Insertion of activated oncogenes such as the mutant ras gene into mouse NIH 3T3 cells converts the cells to a transformed phenotype. The cells become tumorigenic, display anchorage independent growth in semi-solid medium and lose contact inhibition. Loss of contact inhibition produces cell cultures which no longer form uniform monolayers. Rather, the cells pile up into multicellular nodules and grow to very high saturation densities in plastic tissue culture dishes. Agents such as protein farnesyl transferase inhibitors which revert the ras transformed phenotype restore the uniform monolayer growth pattern to cells in culture. This reversion is easily monitored by counting the number of cells in tissue culture plates. Transformed cells will achieve higher cell numbers than cells which have reverted to an untransformed phenotype. Compounds which revert the transformed phenotype should produce antitumor effects in tumors bearing ras gene mutations.
Compounds are screened in tissue culture in NIH 3T3 cells transformed by the T24 activated human H-ras gene. Cells are seeded at an initial density of 200,000 cells per well (9.6 cm^2 surface area) in six-well cluster tissue culture plates. Test compounds are immediately added to 3.0 ml cell growth medium in a 3.0 μl volume of DMSO, with a final concentration of DMSO in the cell growth medium of 0.1%. The test compounds are run at concentrations of 5, 10, 50, 100, and 500 nM along with a DMSO treated vehicle control. […] Then the cells are detached in 1.0 ml trypsin-EDTA cell dissociation medium and counted on a Coulter particle counter.
Cell numbers expressed as cells per well are measured using a Coulter Particle Counter.
All cell counts were corrected for the initial cell input density by subtracting 200,000.
Control cell counts=[cell counts from cells incubated with DMSO vehicle−200,000]
Test compound cell counts=[cell counts from cells incubated with test compound−200,000]. [formula]

[2] = system: T24 activated human H-ras gene transformed NIH 3T3 fibroblast cells (T24 cells); experiment: Farnesyl Protein Transferase Inhibitor Secondary Tumor Model; assay type: in vivo, Nude mice; conditions: po, 15 days of treatment
Description: “Farnesyl Protein Transferase Inhibitor Secondary Tumor Model”
The enzyme farnesyl protein transferase catalyzes the covalent attachment of a farnesyl moiety derived from farnesyl pyrophosphate to the oncogene product p21^ras. This directs p21^ras to attach to plasma membranes. Once attached to plasma membranes, mutant or oncogenic forms of p21^ras will provide a signal for the transformation and uncontrolled growth of malignant tumor cells. Therefore, inhibitors of protein farnesyltransferase will prevent the membrane attachment of p21^ras and inhibit growth of ras-transformed tumors.
Nude mice are inoculated with 1×10^6 of T24 activated human H-ras gene transformed NIH 3T3 fibroblast cells (T24 cells), subcutaneously in the inguinal region. After three days to allow tumors to become established, treatment with test compounds is begun via the oral route. The test compounds are dissolved in a 20% β-cyclodextrin in 0.1 N HCl solution and administered orally as 0.1 ml of compound solution per 10 g mouse body weight. Routinely used doses are 6.25, 12.5 and 25 mg/kg. Body weights and tumor sizes are monitored during the ensuing 15 days of treatment. At the end of treatment, animals are sacrificed and tumors are weighed.
The “mean vehicle treated tumor weight” is defined as the mean tumor weight from 10 to 15 mice […].
The “mean tumor weight” is defined as the mean tumor weight from 10 to 15 mice […]. [formula]

[3] = biological target: T1, Human farnesyl protein transferase (Homo sapiens, UniProt P49354+P49356); experiment: In Vitro Assay for Inhibition of Farnesyl Protein Transferase (scintillation proximity assay); assay type: biochemical; conditions: concentration of test compound producing 50% inhibition of enzyme activity; 60 min at 37° C.
T1 construct: grown as monolayer cell cultures were used as a source of human enzyme; endogenous in cells; host or cells: KHOS (Kirsten virus transformed human osteosarcoma) cells from ATCC, grown as solid tumors in nude mice or as monolayer cultures; The enzyme was partially purified by a 30-50% ammonium sulfate cut and Q Fast Flow Sepharose
Procedure: “In Vitro Assay for Inhibition of Farnesyl Protein Transferase”
Human farnesyl protein transferase was prepared essentially as described (Y. Reiss et al., Methods: A Companion to Methods in Enzymology, vol. 1, 241-245, 1990). Kirsten virus transformed human osteosarcoma (KHOS) cells (American Type Culture Collection, Rockville, Md., USA) grown as solid tumors in nude mice or grown as monolayer cell cultures were used as a source of human enzyme. Briefly, cells or tumors were homogenized in buffer containing 50 mM Tris, 1 mM EDTA, 1 mM EGTA and 0.2 mM phenylmethylsulfonylfluoride (pH 7.5). The homogenates were centrifuged 28,000×g for 60 min and the supernatants collected. […] Fractions containing 4 to 5 ml volumes of column eluate were collected and analyzed for farnesyl protein transferase activity. […]
The activity of farnesyl protein transferase was measured using the Farnesyl Transferase [^3H] […] The amount of [^3H]-farnesyl-(Cys)-biotin lamin B peptide synthesized in the presence or absence of test compounds was quantified as cpm by counting on a Wallac Model 1480 Microbeta Liquid Scintillation Counter. […] The protein farnesyl transferase activity observed in the presence of test compound was normalized to farnesyl transferase activity in the presence of 10% DMSO and expressed as percent inhibition. […]

| melting point [°C] | SMILES | pIC50 ([1]; NIH3T3) | further results |
| --- | --- | --- | --- |
|  | Cn1cncc1C(O)(c1ccc(Cl)cc1)c1cc2c3c(c1)c(-c1cccc(Cl)c1)cc(=O)n3CO2 (racemic) [Compound 15, (±)-6-(3-chlorophenyl)-8-[(4-chlorophenyl)hydroxy(1-methyl-1H-imidazol-5-yl)methyl]-2H,4H-oxazolo[5,4,3-ij]quinolin-4-one] | 7.32 |  |
|  | Cn1cncc1C(N)(c1ccc(Cl)cc1)c1cc2c3c(c1)c(-c1cccc(Cl)c1)cc(=O)n3CC2 (racemic) [Compound 8, (±)-8-[amino(4-chlorophenyl)(1-methyl-1H-imidazol-5-yl)methyl]-6-(3-chlorophenyl)-1,2-dihydro-4H-pyrrolo[3,2,1-ij]quinolin-4-one] | 8.19 | % reduction final tumor weight ([2]; 6.25 mg/kg bid): 41%; % reduction final tumor weight ([2]; 12.25 mg/kg bid): 44%; % reduction final tumor weight ([2]; 25 mg/kg bid): 49% |
|  | Cn1cncc1C(O)(c1ccc(Cl)cc1)c1cc2[nH]c(=O)n3c(=O)cc(-c4cccc(Cl)c4)c(c1)c23 (racemic) [Compound 34, (±)-6-(3-chlorophenyl)-8-[(4-chlorophenyl)hydroxy(1-methyl-1H-imidzol-5-yl)methyl]-4H-imidazo[4,5,1-ij]quinoline-2,4(1H)-dione] |  | pIC50 [1]: < 6.30 |
|  | O=c1cc(-c2cccc(Cl)c2)c2cc(C(c3ccc(Cl)cc3)n3ccnc3)cc3c2n1CCC3 (racemic) [Compound 36, (±)-7-(3-chlorophenyl)-9-[(4-chlorophenyl)-1H-imidazol-1-ylmethyl]-2,3-dihydro-1H,5H-benzo[ij]quinolizin-5-one] |  | pIC50 [3]: 7.68 |
| 93.6 | O=C1CC(c2cccc(Cl)c2)c2cc(C(c3ccc(Cl)cc3)n3ccnc3)cc3c2N1CCC3 (racemic) [Compound 37, (±)-7-(3-chlorophenyl)-9-[(4-chlorophenyl)-1H-imidazol-1-ylmethyl]-2,3,6,7-tetrahydro-1H,5H-benzo[ij]quinolizin-5-one] |  |  |
|  | Cn1cncc1C(O)(c1ccc(Cl)cc1)c1cc2nc(-c3ccccc3)n3c(=O)cc(-c4cccc(Cl)c4)c(c1)c23 (racemic) [Compound 31, (±)-6-(3-chlorophenyl)-8-[(4-chlorophenyl)hydroxy(1-methyl-1H-imidazol-5-yl)methyl]-2-phenyl-4H-imidazo[4,5,1-ij]quinolin-4-one] | < 6.30 |  |
| 213.6 | Cn1cncc1C(O)(c1ccc(Cl)cc1)c1cc2c3c(c1)c(-c1cccc(Cl)c1)cc(=O)n3CC2 (racemic) [Compound 5, (±)-6-(3-chlorophenyl)-8-[(4-chlorophenyl)hydroxy(1-methyl-1H-imidazol-5-yl)methyl]-1,2-dihydro-4H-pyrrolo[3,2,1-ij]quinolin-4-one] | 8.11 |  |
| 170 | Cc1nc2cc(C(O)(c3ccc(Cl)cc3)c3cncn3C)cc3c(-c4cccc(Cl)c4)cc(=O)n1c23 (racemic) [Compound 30, (±)-6-(3-chlorophenyl)-8-[(4-chlorophenyl)hydroxy(1-methyl-1H-imidazol-5-yl)methyl]-2-methyl-4H-imidazo[4,5,1-ij]quinolin-4-one] | 6.43 |  |
| 226 | Cn1cncc1C(O)(c1ccc(Cl)cc1)c1cc2nnn3c(=O)cc(-c4cccc(Cl)c4)c(c1)c23 (racemic) [Compound 35, (±)-6-(3-chlorophenyl)-8-[(4-chlorophenyl)hydroxy(1-methyl-1H-imidazol-5-yl)methyl]-4H-1,2,3-triazolo[4,5,1-ij]quinolin-4-one] | < 6.30 |  |
|  | Cn1cncc1C(c1ccc(Cl)cc1)c1cc2c3c(c1)c(-c1cccc(Cl)c1)cc(=O)n3CC2 (racemic) [Compound 6, (±)-6-(3-chlorophenyl)-8-[(4-chlorophenyl)(1-methyl-1H-imidazol-5-yl)methyl]-1,2-dihydro-4H-pyrrolo[3,2,1-ij]quinolin-4-one monohydrate] | 7.49 |  |
|  | Cn1cncc1C(c1ccc(Cl)cc1)c1cc2c3c(c1)c(-c1cccc(Cl)c1)cc(=S)n3CC2 (racemic) [Compound 27, (±)-6-(3-chlorophenyl)-8-[(4-chlorophenyl)(1-methyl-1H-imidazol-5-yl)methyl]-1,2-dihydro-4H-pyrrolo[3,2,1-ij]quinoline-4-thione] | 7.43 |  |
|  | Cn1cncc1C(N)(c1ccc(Cl)cc1)c1cc2c3c(c1)c(-c1cccc(Cl)c1)cc(=O)n3CC2 (centres unmarked) [Compound 10, (B)-8-[amino(4-chlorophenyl)(1-methyl-1H-imidazol-5-yl)methyl]-6-(3-chlorophenyl)-1,2-dihydro-4H-pyrrolo[3,2,1-ij]quinolin-4-on] |  | pIC50 [1]: 8.49 |
|  | O=c1cc(-c2cccc(Cl)c2)c2cc(C(c3ccc(Cl)cc3)n3ccnc3)cc3c2n1CC3 (centres unmarked) [Compound 38] |  | pIC50 [3]: 7.82 |

| SMILES | melting point [°C] | pIC50 ([1]; NIH3T3) | further results |
| --- | --- | --- | --- |
| Cn1cncc1C(c1ccc(Cl)cc1)c1cc2c3c(c1)c(-c1cccc(Cl)c1)cc(=O)n3CC2.O (racemic) (hydrate or solvate) [Compound 6, (±)-6-(3-chlorophenyl)-8-[(4-chlorophenyl)(1-methyl-1H-imidazol-5-yl)methyl]-1,2-dihydro-4H-pyrrolo[3,2,1-ij]quinolin-4-one monohydrate] | 147 |  |  |
